Assay results from US11970515B1, “Crystal form of Brassinosteroid (BR) analogue, and preparation method and use thereof” (CHENGDU NEWSUN CROP SCIENCE CO., LTD., priority 2021, dated 2024).

Key:
Solubility in water = type: physicochemical; conditions: different temperatures
Description: (§1) 2. Solubility Research • (1) 50 mg of the crystal form I and crystal form II were separately added to a test tube, slowly added with ethanol dropwise at different temperatures while conducting vibration until completely dissolved. Weighing was conducted and a total mass was recorded, converted into volume, expressed as mg/mL. The experimental results were shown in FIG. 11 and FIG. 12. • (2) 50 mg of the crystal form I and crystal form II were separately added to a test tube, slowly added with water dropwise at different temperatures while conducting vibration until completely dissolved. Weighing was conducted and a total mass was recorded, converted into volume, expressed as mg/mL.

tobacco seedlings [1] = assay: Promoting growth of tobacco seedlings (leaf spray, leaf area growth rate); type: in vivo; conditions: for Growth-promoting effect (in words): 7 d after treatment; for 7-day leaf area growth rate (%): leaf spray, 7 d
Description: The example of the present disclosure provided use of the novel crystal form I and the novel crystal form II in promoting plant growth, specifically an experiment of promoting growth of tobacco seedlings was taken as an example, the steps were as follows:
In the present disclosure, the novel crystal form I and the novel crystal form II each were prepared with anhydrous ethanol into a 10 mg/ml mother solution, and used immediately during the experiment.
Tobacco seedlings with a seedling age of 7 d were transplanted and planted in a cultivation room, and the seedlings were subjected to recovery for 2 d before testing. After the treatment agent was formulated according to the experimental design, the leaves of the tobacco seedlings were evenly sprayed, and each treatment was repeated 3 times, with 2 plants in each repetition, that is, 6 seedlings in each treatment. […] The RGB AREA_MM parameter (leaf area/mm^2) of the tobacco was recorded with a plant phenotype instrument before and 7 d […], and a growth rate of the leaf area was calculated to evaluate a growth-promoting effect of the drug. The formula for calculating a leaf area growth rate was as follows: Growth rate (%)=(final leaf area−initial leaf area)×100%/initial leaf area

Solubility in ethanol = type: physicochemical; conditions: different temperatures
Description: as §1

tobacco seedlings [2] = assay: Promoting cold resistance of tobacco (chlorophyll fluorescence after 4° C. cold injury); type: in vivo
Description: The example of the present disclosure provided use of the novel crystal form II in promoting stress resistance of plants, specifically an experiment of promoting cold resistance of tobacco was taken as an example, the steps were as follows:
In the present disclosure, the novel crystal form II was prepared with anhydrous ethanol into a 10 mg/ml mother solution, and used immediately during the experiment.
After the treatment agents were prepared according to Table 6, the leaves of the tobacco seedlings were evenly sprayed in the morning. […] After 1 d of recovery, cold injury (4° C.) treatment was conducted, while other conditions remained the same as those during normal culture. The chlorophyll fluorescence QY-max parameter (theoretical maximum photosynthetic capacity) and Fv/Fm (maximum photon yield of PSII) of tobacco were recorded before drug treatment, after 6 h and 24 h of low-temperature treatment, and after 24 h of recovery at room temperature (25° C.) separately with a plant phenotype instrument.
QY-max represents the theoretical maximum photosynthetic capacity of plants, and the smaller its reduction rate, the better the plant's low-temperature resistance. Fv/Fm-lss represents the maximum photon yield of PSII, similar to QY-max, the smaller its reduction rate, the better the plant's low-temperature resistance. […] Afterwards, each treatment was placed at room temperature (25° C.) for recovery.

[3] = Stability test of crystal forms in high-temperature environment at 80° C.±2° C.; type: physicochemical
Description: Appropriate amounts of the crystal form I and crystal form II were separately placed in a high-temperature environment at 80° C.±2° C. for stability experiments, and the experimental results were shown in Table 1.

corn seeds = assay: Immersing corn seeds to promote germination and growth of corn; type: in vivo; conditions: for Bud vigor index / Root vigor index / Germination rate (%): 7th day; for Germination rate (%): seeds immersed 24 h
Description: The example of the present disclosure provided use of the novel crystal form I and the novel crystal form II in promoting plant growth, specifically an experiment of immersing corn seeds to promote germination and growth of corn was taken as an example, the steps were as follows:
In the present disclosure, the novel crystal form I was prepared with anhydrous ethanol into a 10 mg/ml mother solution, and used immediately during the experiment.
The agents were prepared according to the experimental design. 20 normal plump corn seeds were selected, placed in the agent, and immersed at 26° C. for 24 h. The seeds were washed with water, placed in a culture box and placed in a constant-temperature incubator for germination. The germination was conducted in 2 periods: 14 h of light illumination, at 28° C.; 10 h in the dark, at 25° C., and for 7 d. Each treatment was repeated 3 times. During the whole experiment, 5 ml of water was regularly added with a pipette at 9:00 every day to keep the culture box moist. After 7 days, the germination rate was counted, the shoot length and root length were measured, and the root vigor and shoot vigor were calculated. Germination rate=germinated number of seeds treated on 7th day/total number of treated seeds×100%; Bud vigor index=germination rate of 7th day×seedling bud length of 7th day; Root vigor index=germination rate of 7th day×seedling root length of 7th day.

[4] = 0.003 ppm, low-temperature (4° C.) treatment for 6 h
[5] = 0.003 ppm, low-temperature (4° C.) treatment for 24 h
[6] = 0.003 ppm, room-temperature (25° C.) recovery for 24 h
[7] = 0.03 ppm, low-temperature (4° C.) treatment for 6 h
[8] = 0.03 ppm, low-temperature (4° C.) treatment for 24 h
[9] = 0.03 ppm, room-temperature (25° C.) recovery for 24 h
[10] = 0.3 ppm, low-temperature (4° C.) treatment for 6 h
[11] = 0.3 ppm, low-temperature (4° C.) treatment for 24 h
[12] = 0.3 ppm, room-temperature (25° C.) recovery for 24 h

For `CC(C)(O)CC[C@@H](O)[C@](C)(O)C1CC[C@@]2(O)[C@H]3CC(=O)[C@@H]4C[C@@H](O)[C@@H](O)C[C@]4(C)[C@H]3CC[C@]12C` (single isomer, unassigned) [Novel crystal form II], the “Solubility in water (in words)” value (Solubility in water) was “desirable solubility”, the “Growth-promoting effect (in words)” value (tobacco seedlings [1]; 0.003 ppm) was “obvious growth-promoting effects” and the “7-day leaf area growth rate (%)” value (tobacco seedlings [1]; 0.003 ppm) was 169.02 ± 0.26%. The “7-day leaf area growth rate (%)” value (tobacco seedlings [1]; 0.03 ppm) was 153.44 ± 0.19%, the “7-day leaf area growth rate (%)” value (tobacco seedlings [1]; 0.3 ppm) was 150.31 ± 0.39% and the “Solubility in ethanol (in words)” value (Solubility in ethanol) was “desirable solubility”. The “Fv/Fm-lss change rate (%)” value (tobacco seedlings [2]; [4]) was −30.1 ± 0.22%, the “QY-max change rate (%)” value (tobacco seedlings [2]; [4]) was −10.4 ± 0.13% and the “Fv/Fm-lss change rate (%)” value (tobacco seedlings [2]; [5]) was −46.1 ± 0.28%. For the same compound, the “QY-max change rate (%)” value (tobacco seedlings [2]; [5]) was −31.0 ± 0.18%, the “Fv/Fm-lss change rate (%)” value (tobacco seedlings [2]; [6]) was −16.2 ± 0.27% and the “QY-max change rate (%)” value (tobacco seedlings [2]; [6]) was −10.0 ± 0.24%. The “Reduction rate of QY-max and Fv/Fm-lss versus water control (in words)” value (tobacco seedlings [2]; 0.03 ppm, after 6 h of low-temperature treatment) was “significantly lower than that of the water control”, the “Recovery effect, comparison of concentrations (in words)” value (tobacco seedlings [2]; 0.03 ppm, after 24 h of recovery at room temperature) was “the best” and the “Fv/Fm-lss change rate (%)” value (tobacco seedlings [2]; [7]) was −14.3 ± 0.13%. For the same compound, the “QY-max change rate (%)” value (tobacco seedlings [2]; [7]) was −3.6 ± 0.33%, the “Fv/Fm-lss change rate (%)” value (tobacco seedlings [2]; [8]) was −33.4 ± 0.12% and the “QY-max change rate (%)” value (tobacco seedlings [2]; [8]) was −27.6 ± 0.16%. For the same compound, the “Fv/Fm-lss change rate (%)” value (tobacco seedlings [2]; [9]) was 0.3 ± 0.16%, the “QY-max change rate (%)” value (tobacco seedlings [2]; [9]) was −0.6 ± 0.18% and the “Fv/Fm-lss change rate (%)” value (tobacco seedlings [2]; [10]) was −26.4 ± 0.27%. The “QY-max change rate (%)” value (tobacco seedlings [2]; [10]) was −7.9 ± 0.25%, the “Fv/Fm-lss change rate (%)” value (tobacco seedlings [2]; [11]) was −44.4 ± 0.25% and the “QY-max change rate (%)” value (tobacco seedlings [2]; [11]) was −30.0 ± 0.27%. The “Fv/Fm-lss change rate (%)” value (tobacco seedlings [2]; [12]) was −4.5 ± 0.21%, the “QY-max change rate (%)” value (tobacco seedlings [2]; [12]) was −5.2 ± 0.13% and the “Recovery effect versus clean water control (in words)” value (tobacco seedlings [2]; each concentration, after 24 h of recovery at room temperature) was “better than that of the clean water control”. The “Low-temperature resistance, summary (in words)” value (tobacco seedlings [2]; in vivo) was “bioactivity of anti-low temperature”, the “Stability in high-temperature environment (in words)” value [3] was “highly stable in the high-temperature environment, and no crystal form change occurred” and the “Content (%)” value ([3]; test time 0 d) was 99.87%. For the same compound, the “Content of other substances (%)” value ([3]; test time 0 d) was 0.13%, the XRPD ([3]; test time 0 d) was “Unchanged” and the “Content (%)” value ([3]; test time 5 d) was 99.84%. For the same compound, the “Content of other substances (%)” value ([3]; test time 5 d) was 0.16%, the XRPD ([3]; test time 5 d) was “Unchanged” and the “Content (%)” value ([3]; test time 10 d) was 99.87%. For the same compound, the “Content of other substances (%)” value ([3]; test time 10 d) was 0.13% and the XRPD ([3]; test time 10 d) was “Unchanged”.

For `CC(C)(O)CC[C@@H](O)[C@](C)(O)C1CC[C@@]2(O)[C@H]3CC(=O)[C@@H]4C[C@@H](O)[C@@H](O)C[C@]4(C)[C@H]3CC[C@]12C` (single isomer, unassigned) [Novel crystal form I], the Bud vigor index (corn seeds; 0.003 ppm) was 7.77 ± 0.36, the Root vigor index (corn seeds; 0.003 ppm) was 8.80 ± 0.29 and the “Germination rate (%)” value (corn seeds; 0.003 ppm) was 72.12 ± 1.15%. For the same compound, the “Effect on root and bud vigor indexes versus control CK (in words)” value (corn seeds; 0.03 ppm) was “best effect, which was obviously better than that of the control CK”, the “Germination effect on corn compared with the water control (in words)” value (corn seeds; 0.03 ppm) was “germination-promoting effect” and the Bud vigor index (corn seeds; 0.03 ppm) was 10.93 ± 0.17. For the same compound, the Root vigor index (corn seeds; 0.03 ppm) was 10.89 ± 0.24, the “Germination rate (%)” value (corn seeds; 0.03 ppm) was 77.34 ± 1.99% and the Bud vigor index (corn seeds; 0.3 ppm) was 9.26 ± 0.24. The Root vigor index (corn seeds; 0.3 ppm) was 9.77 ± 0.53, the “Germination rate (%)” value (corn seeds; 0.3 ppm) was 75.38 ± 2.37% and the “Effect on root and bud vigor indexes (in words)” value (corn seeds; in vivo) was “effect of improving the root vigor index and bud vigor index”. The “Solubility in water (in words)” value (Solubility in water) was “desirable solubility”, the “Growth-promoting effect (in words)” value (tobacco seedlings [1]; 0.003 ppm) was “obvious growth-promoting effects” and the “7-day leaf area growth rate (%)” value (tobacco seedlings [1]; 0.003 ppm) was 179.02 ± 0.15%. For the same compound, the “7-day leaf area growth rate (%)” value (tobacco seedlings [1]; 0.03 ppm) was 166.45 ± 0.18%, the “7-day leaf area growth rate (%)” value (tobacco seedlings [1]; 0.3 ppm) was 145.98 ± 0.39% and the “Solubility in ethanol (in words)” value (Solubility in ethanol) was “desirable solubility”. The “Stability in high-temperature environment (in words)” value [3] was “highly stable in the high-temperature environment, and no crystal form change occurred”, the “Content (%)” value ([3]; test time 0 d) was 99.98% and the “Content of other substances (%)” value ([3]; test time 0 d) was 0.02%. The XRPD ([3]; test time 0 d) was “Unchanged”, the “Content (%)” value ([3]; test time 5 d) was 99.93% and the “Content of other substances (%)” value ([3]; test time 5 d) was 0.07%. The XRPD ([3]; test time 5 d) was “Unchanged”, the “Content (%)” value ([3]; test time 10 d) was 99.96% and the “Content of other substances (%)” value ([3]; test time 10 d) was 0.04%. For the same compound, the XRPD ([3]; test time 10 d) was “Unchanged”.
